Our source for the EC50 values is ChEMBL document CHEMBL1155656, “Thirteen novel cycloartane-type triterpenes from Combretum quadrangulare” (2000).

In brackets after ≈: the same amount, converted by molar mass. A value given as a limit tells only on which side of the number the result lay.

A short description of the assay: Cytotoxicity against mouse 26-L5 cells. In kind it is functional. The note with it: read-out: ED50 (the source's name).

In the case of `C[C@H](C/C=C\C(C)(C)O)[C@H]1CC[C@@]2(C)[C@@H]3CC[C@H]4[C@](C)(C(=O)O)[C@@H](O)C[C@H](O)[C@@]45C[C@@]35CC[C@]12C` [QUADRANGULARIC ACID K], the EC50 was found to be 82.6 µg/mL (≈ 169 µM).

Take `COC(=O)[C@]1(C)[C@@H](O)C[C@H](O)[C@]23C[C@]24CC[C@]2(C)[C@@H]([C@@H](C/C=C/C(C)(C)OO)C(=O)O)CC[C@@]2(C)[C@@H]4CC[C@@H]13` [QUADRANGULARIC ACID F]: the EC50 was greater than 100 µg/mL.

For the compound `C=C(C)C(=O)CC[C@@H](C(=O)O)[C@H]1CC[C@@]2(C)[C@@H]3CC[C@H]4[C@](C)(C(=O)O)[C@@H](O)C[C@H](O)[C@@]45C[C@@]35CC[C@]12C` [QUADRANGULARIC ACID H], the EC50 was greater than 100 µg/mL.

Take `C[C@H](CC[C@H](O)C(C)(C)O)[C@H]1CC[C@@]2(C)[C@@H]3CC[C@H]4[C@](C)(C(=O)O)[C@@H](O)C[C@H](O)[C@@]45C[C@@]35CC[C@]12C`: the EC50 is greater than 100 µg/mL.

For `COC(C)(C)/C=C/C[C@@H](C)[C@H]1CC[C@@]2(C)[C@@H]3CC[C@H]4[C@](C)(C(=O)O)[C@@H](O)C[C@H](O)[C@@]45C[C@@]35CC[C@]12C` [QUADRANGULARIC ACID J], the EC50 worked out at 86.1 µg/mL (≈ 171 µM).

Take `C=C(CC[C@@H](C)[C@H]1CC[C@@]2(C)[C@@H]3[C@@H](O)C[C@H]4[C@](C)(C(=O)O)[C@@H](O)C[C@H](O)[C@@]45C[C@@]35CC[C@]12C)C(C)C`: the EC50 came out at 37.3 µg/mL (≈ 74.2 µM).

Take `C[C@H](CCC(=O)O)[C@H]1CC[C@@]2(C)[C@@H]3CC[C@H]4[C@](C)(C(=O)O)[C@@H](O)C[C@H](O)[C@@]45C[C@@]35CC[C@]12C` [NORQUADRANGULARIC ACID A]: the EC50 was greater than 100 µg/mL.

With `C=C(C)[C@H](O)CC[C@@H](C(=O)O)[C@H]1CC[C@@]2(C)[C@@H]3CC[C@H]4[C@](C)(C(=O)OC)[C@@H](O)C[C@H](O)[C@@]45C[C@@]35CC[C@]12C`, the EC50 is greater than 100 µg/mL.

With `C=C(C)[C@@H](O)CC[C@@H](CO)[C@H]1CC[C@@]2(C)[C@@H]3CC[C@H]4[C@](C)(C(=O)OC)[C@@H](O)C[C@H](O)[C@@]45C[C@@]35CC[C@]12C` [METHYL QUADRANGULARATE], the EC50 turned out to be 29.4 µg/mL (≈ 56.7 µM).

On to `C=C(C)[C@@H](O)CC[C@@H](C(=O)O)[C@H]1CC[C@@]2(C)[C@@H]3CC[C@H]4[C@](C)(C(=O)OC)[C@@H](O)C[C@H](O)[C@@]45C[C@@]35CC[C@]12C` [QUADRANGULARIC ACID G], for which the EC50 was greater than 100 µg/mL.

In the case of `C[C@H](CC[C@@H](O)C(C)(C)O)[C@H]1CC[C@@]2(C)[C@@H]3CC[C@H]4[C@](C)(C(=O)O)[C@@H](O)C[C@H](O)[C@@]45C[C@@]35CC[C@]12C` [QUADRANGULARIC ACID L], the EC50 is greater than 100 µg/mL.
